Key:
[1] = Circulating ANP levels in normal rats after infusion; assay type: in vivo, rat (Sprague-Dawley, male)
Procedure: (F) Urine output represented by urine volume collected at every 30 min interval during continuous infusion. (G) Urinary sodium excretion during the entire 90 min continuous infusion.
Protocols in this study have been approved by the Mayo Clinic Institutional Animal Care and Use Committee (IACUC). Rats (Sprague-Dawley, male, 10–11 weeks old) were anesthetized and maintained with 2% isoflurane. Rats were kept on heating pad at 37 °C for the entire experiment to maintain their body temperature. Polyethylene tubes (PE-50) were placed into a jugular vein for saline and peptides infusion and into a carotid artery for BP monitoring and blood sampling. The bladder was cannulated with a PE-90 tube for passive urine collection. […] After the 45 min equilibrium, BP was recorded, and blood was sampled as baseline reference value. […] Urine samples were collected every 30 min period and BP was measured every 15 min using CardioSOFT Pro software (Sonometrics Corporation). […] The volume of urine was measured, and the sodium concentrations were measured with an electrocyte analyzer (Diamond Diagnostics Inc., Holliston, MA, USA). Both plasma and urine samples were then stored at −80 °C until assayed. cGMP was measured in rat plasma and urine samples by a cGMP ELISA (Enzo Life Sciences, Farmingdale, NY, USA) as previously reported.

[2] = tested on: HEK293/GC-A^+/AT1^+ cells (human GC-A and AT1); experiment: Intracellular cGMP generation in HEK293/GC-A+/AT1+ cells; assay type: cell-based; conditions: valsartan 1 µM or Go6983 5 µM; ANP 10^−8 M, ANGII 10^−8 M; one-way ANOVA with Dunnett, p < 0.05
Excerpt: We leveraged HEK293 cells as a cellular tool for mechanistic exploration in the current study. HEK293 cells (passage 4–6) were maintained in Dulbecco’s modified Eagle’s medium (DMEM) supplemented with 10% fetal bovine serum, 100 U/mL penicillin, 100 U/mL streptomycin, and designated antibiotics. HEK293/GC-A^+ and HEK293/GC-B^+ cell lines were generated from HEK293 parental cell transfected with plasmids (OriGene, Rockville, MD, USA) containing either human GC-A or GC-B cDNA sequences. Both GC-A and GC-B plasmid carried sequences for a green florescence protein (GFP) tag and resistance to Neomycin (G418). HEK293/GC-A^+/AT1^+ and HEK293/GC-A^+/AT2^+ cell lines were generated from HEK293/GC-A^+ transfected with lentiviral particle with clones of either human AT1 or AT2 receptor (OriGene, Rockville, MD, USA) using a polybrene transfection agent. Initial transfection was completed with multiplicity of infection (MOI) at 20, 10, and 1. The lentiviral vector carried sequence for resistance to puromycin. Positive HEK293/GC-A^+ and HEK293/GC-B^+ cells were cultured in a regular medium with 250 μg/mL G418; Likewise, positive HEK293/GC-A^+/AT1^+ or HEK293/GC-A^+/AT2^+ cells were cultured in a regular medium with 250 μg/mL G418 (to select for GC-A^+ cells) and 1 μg/mL puromycin (to select for AT1^+ or AT2^+ cells). […]

[3] = tested on: PKC; experiment: PKC activity (phosphorylated pan-PKC substrates, western blot); assay type: cell-based, human; conditions: Go6983 at 5 µM, HEK293/GC-A^+/AT1^+ cells
Excerpt: (§1) Figure 5 Involvement of PKC Signaling in the Crosstalk between ANGII and GC-A. (A) Protein expression of different human PKC isoforms in the membrane and cytosol fractions of different HEK293 cell lines (with or without treatment of ANGII). GC-A and NaK-ATPase serve as quality control for the separation of membrane and cytosol fractions. GAPDH serves as an additional control as it is primarily expressed in the cytosol fraction compared to membrane fraction. (B) Protein expression of phosphorylated PKC substrates, phosphorylated p38 MAPK, and p38 MAPK in HEK293/GC-A^+/AT1^+ cells treated with different PKC modulators. GAPDH serves as a loading control and 50 µg of total protein (determined using BCA method) was loaded in each lane. PMA, phorbol 12-myristate 13-acetate. […] (D) Hypothetical mechanism underlying the crosstalk between ANGII and GC-A derived from our in vitro studies: (1) ANGII naturally suppresses GC-A mediated cGMP production via AT1 receptor, but not the AT2 receptor nor direct effect on GC-A; (2) PKC is a critical downstream target of AT1 mediating this RAAS/NPS interaction.
(§2) HEK293 parental cells, HEK293/GC-A^+, HEK293/GC-B^+, HEK293/GC-A^+/AT1^+, and HEK293/GC-A^+/AT2^+ cells were cultured in 60 mm dish to reach 90–100% confluency before being harvested in RIPA buffer (Thermo Fisher Scientific, Waltham, MA, USA) with protease inhibitors. […]

[4] = tested on: p38 MAPK; experiment: MAPK phosphorylation (p38 MAPK, western blot); assay type: cell-based, human; conditions: Go6983 at 5 µM, HEK293/GC-A^+/AT1^+ cells
Excerpt: as §1, §2

With `CC[C@H](C)[C@H](NC(=O)[C@H](Cc1ccc(O)cc1)NC(=O)[C@@H](NC(=O)[C@H](CCCNC(=N)N)NC(=O)[C@@H](N)CC(=O)O)C(C)C)C(=O)N[C@@H](Cc1cnc[nH]1)C(=O)N1CCC[C@H]1C(=O)N[C@@H](Cc1ccccc1)C(=O)O` [ANGII, angiotensin II] the “circulating ANP levels, effect of ANGII co-infusion (in words)” value ([1]; ANGII 50 pmol/kg/min with ANP 300 pmol/kg/min vs ANP alone, 90 min, N = 4 per group) was “no influence on circulating ANP levels”.
For `CC[C@H](C)[C@@H]1NC(=O)[C@H](CCCNC(=N)N)NC(=O)[C@H](CC(=O)O)NC(=O)[C@H](CCSC)NC(=O)[C@H](CCCNC(=N)N)NC(=O)CNC(=O)CNC(=O)[C@H](Cc2ccccc2)NC(=O)[C@@H](NC(=O)[C@H](CO)NC(=O)[C@H](CO)NC(=O)[C@H](CCCNC(=N)N)NC(=O)[C@H](CCCNC(=N)N)NC(=O)[C@H](CC(C)C)NC(=O)[C@@H](N)CO)CSSC[C@@H](C(=O)N[C@@H](CC(N)=O)C(=O)N[C@@H](CO)C(=O)N[C@@H](Cc2ccccc2)C(=O)N[C@@H](CCCNC(=N)N)C(=O)N[C@@H](Cc2ccc(O)cc2)C(=O)O)NC(=O)CNC(=O)[C@H](CC(C)C)NC(=O)CNC(=O)[C@H](CO)NC(=O)[C@H](CCC(N)=O)NC(=O)[C@H](C)NC(=O)CNC1=O` [ANP, atrial natriuretic peptide], the “circulating ANP level” value ([1]; ANP alone, 300 pmol/kg/min continuous i.v. infusion, plasma at 90 min, mean ± SEM, N = 4, endogenous level 15.3 ± 1.4 pg/mL) was 18125.1 ± 1729.3 pg/mL.
In the case of `CCCCC(=O)N(Cc1ccc(-c2ccccc2-c2nnn[nH]2)cc1)[C@H](C(=O)O)C(C)C` [valsartan], the “rescue of ANGII suppression of ANP-induced cGMP (in words)” value [2] is reported as “significantly rescued the suppression effect of ANGII on ANP-induced cGMP”.
In the case of Go6983, the “PKC activity inhibition (in words)” value [3] is reported as “effectively inhibited PKC activity”, the “MAPK dependence of PKC inhibition (in words)” value [4] is reported as “mitogen-activated protein kinase (MAPK) independent manner” and the “rescue of ANGII suppression of ANP-induced cGMP (in words)” value [2] is reported as “significantly rescued the suppression effect of ANGII on ANP-induced cGMP”.
